Assay results: ChEMBL document CHEMBL1909046, “DrugMatrix in vitro pharmacology data”

Assays:
[1] = molecular target: Matrix metalloproteinase-9 (Homo sapiens, UniProt P14780); assay type: cell-based;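 note: inhibition of isolated MMP-9 enzyme activity toward a synthetic peptide substrate, from the DrugMatrix protease screening panel; in other assays of this panel Not Active means under 50% inhibition at 10 µM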
[2] = DRUGMATRIX: Phosphodiesterase PDE3 enzyme inhibition (substrate: [3H]cAMP + cAMP); assay type: tissue-based, Homo sapiens; conditions: platelet; Not Active = under 50% inhibition at 10 µM
[3] = DRUGMATRIX: Interleukin IL-1 radioligand binding (ligand: [125I] interleukin 1beta); assay type: cell membranes, Membrane; conditions: nih3t3; Not Active = under 50% inhibition at 10 µM
[4] = molecular target: T1, Angiotensin-converting enzyme (Oryctolagus cuniculus, UniProt P12822); experiment: biochemical; assay type: tissue-based, Lung;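 note: enzymatic inhibition of angiotensin-converting enzyme measured with FAPGG as the substrate; in other assays of this panel Not Active means under 50% inhibition at 10 µM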
T1 sequence (P12822 whole entry): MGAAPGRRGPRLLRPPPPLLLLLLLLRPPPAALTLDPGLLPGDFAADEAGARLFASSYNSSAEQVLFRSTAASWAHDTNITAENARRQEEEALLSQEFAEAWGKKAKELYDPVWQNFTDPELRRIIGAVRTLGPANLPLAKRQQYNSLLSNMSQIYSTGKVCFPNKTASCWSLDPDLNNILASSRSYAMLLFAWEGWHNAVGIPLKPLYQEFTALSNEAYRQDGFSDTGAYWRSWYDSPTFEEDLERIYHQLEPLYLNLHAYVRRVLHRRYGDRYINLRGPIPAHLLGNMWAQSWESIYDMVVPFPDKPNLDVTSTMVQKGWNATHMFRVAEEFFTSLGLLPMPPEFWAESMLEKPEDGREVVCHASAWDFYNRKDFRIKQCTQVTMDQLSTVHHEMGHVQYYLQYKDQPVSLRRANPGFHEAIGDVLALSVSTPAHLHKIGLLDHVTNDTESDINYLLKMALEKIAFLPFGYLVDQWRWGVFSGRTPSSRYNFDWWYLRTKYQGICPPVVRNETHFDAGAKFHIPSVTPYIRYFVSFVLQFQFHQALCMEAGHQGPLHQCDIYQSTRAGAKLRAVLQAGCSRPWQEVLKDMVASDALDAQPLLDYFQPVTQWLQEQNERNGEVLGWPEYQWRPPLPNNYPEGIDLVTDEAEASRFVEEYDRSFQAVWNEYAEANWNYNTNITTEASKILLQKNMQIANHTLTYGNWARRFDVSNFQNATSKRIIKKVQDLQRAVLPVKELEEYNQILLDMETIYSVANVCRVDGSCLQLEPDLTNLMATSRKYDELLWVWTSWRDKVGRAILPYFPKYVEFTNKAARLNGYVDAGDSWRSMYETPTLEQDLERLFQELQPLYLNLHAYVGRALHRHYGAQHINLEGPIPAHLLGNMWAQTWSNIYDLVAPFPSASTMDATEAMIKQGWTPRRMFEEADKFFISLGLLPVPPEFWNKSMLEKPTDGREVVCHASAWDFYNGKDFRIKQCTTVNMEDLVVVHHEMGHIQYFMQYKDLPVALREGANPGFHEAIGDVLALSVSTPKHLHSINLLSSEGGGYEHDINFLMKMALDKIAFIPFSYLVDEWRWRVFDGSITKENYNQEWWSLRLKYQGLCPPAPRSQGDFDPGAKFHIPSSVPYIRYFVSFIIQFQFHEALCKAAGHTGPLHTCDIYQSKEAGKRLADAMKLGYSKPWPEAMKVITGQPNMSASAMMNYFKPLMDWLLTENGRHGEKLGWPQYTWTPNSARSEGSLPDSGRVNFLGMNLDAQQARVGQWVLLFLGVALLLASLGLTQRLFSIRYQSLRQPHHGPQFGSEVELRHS

Carbonic anhydrase 2 = Carbonic anhydrase 2 (Homo sapiens, UniProt P00918); experiment: DRUGMATRIX: Carbonic Anhydrase II enzyme inhibition (substrate: 4-Nitrophenyl acetate (4-NPA)); assay type: tissue-based, Erythrocyte; conditions: erythrocyte; Not Active = under 50% inhibition at 10 µM
[5] = molecular target: T2, Muscarinic acetylcholine receptor M2 (Homo sapiens, UniProt P08172); assay type: cell membranes, CHO-K1, Membrane; conditions: cho-k1; note: in other assays of this panel Not Active means under 50% inhibition at 10 µM
T2 sequence (P08172 whole entry): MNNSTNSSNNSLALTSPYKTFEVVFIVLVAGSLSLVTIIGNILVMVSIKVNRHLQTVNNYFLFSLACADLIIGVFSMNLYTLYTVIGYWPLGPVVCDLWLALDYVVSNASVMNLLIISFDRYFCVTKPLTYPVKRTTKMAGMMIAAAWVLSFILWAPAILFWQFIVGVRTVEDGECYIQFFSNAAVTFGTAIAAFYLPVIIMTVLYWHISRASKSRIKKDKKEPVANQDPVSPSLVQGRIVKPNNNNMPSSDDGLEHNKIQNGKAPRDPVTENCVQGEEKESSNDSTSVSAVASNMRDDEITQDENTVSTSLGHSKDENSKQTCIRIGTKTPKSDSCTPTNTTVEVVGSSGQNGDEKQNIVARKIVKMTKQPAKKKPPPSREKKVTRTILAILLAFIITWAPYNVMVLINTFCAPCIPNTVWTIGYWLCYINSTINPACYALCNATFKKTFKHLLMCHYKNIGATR

[6] = molecular target: 5-hydroxytryptamine receptor 4 (Cavia porcellus, UniProt O70528); assay type: cell membranes, Dunkin-Hartley, Striatum, Membrane; note: in other assays of this panel Not Active means under 50% inhibition at 10 µM
[7] = molecular target: C-C chemokine receptor type 2 (Homo sapiens, UniProt P41597); assay type: cell membranes, CHO-K1, Membrane; conditions: cho-k1; note: in other assays of this panel Not Active means under 50% inhibition at 10 µM
[8] = molecular target: Tyrosine-protein kinase Lck (Homo sapiens, UniProt P06239); experiment: DRUGMATRIX: Protein Tyrosine Kinase, LCK enzyme inhibition (substrate: Poly(Glu:Tyr)); assay type: cell-based, Insect cells; conditions: insect cells; Not Active = under 50% inhibition at 10 µM
[9] = molecular target: T3, Amine oxidase [flavin-containing] A (Homo sapiens, UniProt P21397); experiment: DRUGMATRIX: Monoamine Oxidase MAO-A enzyme inhibition (substrate: Kynuramine); parameters: species or system BTI-TN-5B1-4; conditions: bti-tn-5b1-4; Not Active = under 50% inhibition at 10 µM
T3 sequence (P21397 whole entry): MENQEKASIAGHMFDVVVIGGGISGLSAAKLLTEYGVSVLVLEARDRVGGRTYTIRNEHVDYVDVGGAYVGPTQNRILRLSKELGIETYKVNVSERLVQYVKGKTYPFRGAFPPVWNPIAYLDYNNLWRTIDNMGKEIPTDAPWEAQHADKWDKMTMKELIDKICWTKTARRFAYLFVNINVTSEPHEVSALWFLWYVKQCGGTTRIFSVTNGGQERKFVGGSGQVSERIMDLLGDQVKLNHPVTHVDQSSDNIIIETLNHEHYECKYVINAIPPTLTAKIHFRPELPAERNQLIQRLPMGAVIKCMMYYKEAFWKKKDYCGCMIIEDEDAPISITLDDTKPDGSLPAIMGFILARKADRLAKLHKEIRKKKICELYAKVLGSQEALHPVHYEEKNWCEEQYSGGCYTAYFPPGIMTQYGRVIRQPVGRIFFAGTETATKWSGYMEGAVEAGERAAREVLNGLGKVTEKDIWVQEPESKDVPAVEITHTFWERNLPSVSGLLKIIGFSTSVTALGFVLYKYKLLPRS

Tyrosine-protein kinase Lck, sequence (P06239 whole entry): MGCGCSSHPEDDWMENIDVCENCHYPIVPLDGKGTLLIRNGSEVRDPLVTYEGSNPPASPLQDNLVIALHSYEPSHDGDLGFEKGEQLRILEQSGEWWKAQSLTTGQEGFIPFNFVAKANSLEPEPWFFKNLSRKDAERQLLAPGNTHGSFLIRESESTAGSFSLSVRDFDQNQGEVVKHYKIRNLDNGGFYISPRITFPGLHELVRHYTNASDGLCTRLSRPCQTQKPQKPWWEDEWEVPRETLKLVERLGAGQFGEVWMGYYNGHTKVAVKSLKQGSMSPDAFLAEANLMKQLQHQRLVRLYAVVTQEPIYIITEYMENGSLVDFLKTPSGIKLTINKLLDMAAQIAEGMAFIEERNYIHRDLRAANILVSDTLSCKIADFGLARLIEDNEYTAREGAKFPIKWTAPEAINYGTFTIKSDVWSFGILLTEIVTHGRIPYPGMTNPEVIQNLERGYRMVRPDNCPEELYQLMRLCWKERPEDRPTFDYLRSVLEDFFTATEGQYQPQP
5-hydroxytryptamine receptor 4, sequence (O70528 whole entry): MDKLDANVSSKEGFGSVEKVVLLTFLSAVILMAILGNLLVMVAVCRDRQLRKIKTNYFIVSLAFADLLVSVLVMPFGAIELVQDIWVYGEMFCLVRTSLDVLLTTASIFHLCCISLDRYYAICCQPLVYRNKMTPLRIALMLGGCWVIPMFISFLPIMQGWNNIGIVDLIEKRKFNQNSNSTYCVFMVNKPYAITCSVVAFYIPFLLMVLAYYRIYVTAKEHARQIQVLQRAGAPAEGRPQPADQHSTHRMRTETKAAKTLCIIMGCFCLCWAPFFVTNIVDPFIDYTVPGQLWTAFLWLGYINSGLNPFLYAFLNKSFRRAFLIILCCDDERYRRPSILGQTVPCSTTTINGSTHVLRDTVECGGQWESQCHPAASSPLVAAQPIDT
Matrix metalloproteinase-9, sequence (P14780 whole entry): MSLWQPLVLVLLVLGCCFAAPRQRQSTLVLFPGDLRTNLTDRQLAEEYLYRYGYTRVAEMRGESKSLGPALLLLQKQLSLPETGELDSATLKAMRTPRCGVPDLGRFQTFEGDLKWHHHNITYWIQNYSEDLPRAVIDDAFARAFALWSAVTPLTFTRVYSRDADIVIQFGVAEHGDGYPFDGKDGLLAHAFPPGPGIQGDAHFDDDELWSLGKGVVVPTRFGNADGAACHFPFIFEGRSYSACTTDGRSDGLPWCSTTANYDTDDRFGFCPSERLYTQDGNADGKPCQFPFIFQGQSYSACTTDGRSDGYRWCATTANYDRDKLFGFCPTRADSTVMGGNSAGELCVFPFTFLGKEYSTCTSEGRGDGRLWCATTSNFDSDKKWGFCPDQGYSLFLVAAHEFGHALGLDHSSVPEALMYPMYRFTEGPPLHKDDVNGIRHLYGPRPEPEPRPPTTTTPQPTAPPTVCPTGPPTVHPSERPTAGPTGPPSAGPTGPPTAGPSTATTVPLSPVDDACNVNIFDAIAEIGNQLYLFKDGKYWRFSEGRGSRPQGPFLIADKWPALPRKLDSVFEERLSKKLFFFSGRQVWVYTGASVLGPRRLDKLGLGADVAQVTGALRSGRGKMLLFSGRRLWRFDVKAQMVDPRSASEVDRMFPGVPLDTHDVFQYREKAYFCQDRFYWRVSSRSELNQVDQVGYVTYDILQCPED
C-C chemokine receptor type 2, sequence (P41597 whole entry): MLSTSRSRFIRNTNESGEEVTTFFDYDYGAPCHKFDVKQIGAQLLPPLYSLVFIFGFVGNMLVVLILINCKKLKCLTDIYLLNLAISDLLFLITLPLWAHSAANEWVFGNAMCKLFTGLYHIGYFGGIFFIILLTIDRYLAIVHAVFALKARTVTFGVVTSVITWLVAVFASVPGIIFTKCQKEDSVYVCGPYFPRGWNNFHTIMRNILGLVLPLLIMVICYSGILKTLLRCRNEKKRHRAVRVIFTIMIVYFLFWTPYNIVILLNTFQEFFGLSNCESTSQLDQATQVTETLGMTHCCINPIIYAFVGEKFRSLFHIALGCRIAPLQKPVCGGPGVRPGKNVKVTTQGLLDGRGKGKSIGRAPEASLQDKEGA

COc1c(C)c2c(c(O)c1C/C=C(\C)CCC(=O)OCCN1CCOCC1)C(=O)OC2 [MYCOPHENOLATE MOFETIL]
Not Active: IC50 [1] | IC50 [2] | Ki [2] | IC50 [3] | Ki [3] | IC50 [4] | IC50 (Carbonic anhydrase 2) | IC50 [5] | IC50 [6] | IC50 [7] | IC50 [8] | IC50 [9]

C[C@]12Cc3c[nH]nc3C[C@@H]1CC[C@@H]1[C@@H]2CC[C@@]2(C)[C@H]1CC[C@]2(C)O [STANOZOLOL]
Not Active: IC50 [1] | IC50 [2] | Ki [2] | IC50 [3] | Ki [3] | IC50 [4] | IC50 (Carbonic anhydrase 2) | IC50 [5] | IC50 [6] | IC50 [7] | IC50 [8] | IC50 [9]

CC(C)(C)NCC(O)c1cc(O)cc(O)c1 (centres undefined) [TERBUTALINE]
Not Active: IC50 [1] | IC50 [2] | Ki [2] | IC50 [3] | Ki [3] | IC50 [4] | IC50 (Carbonic anhydrase 2) | IC50 [5] | IC50 [6] | IC50 [7] | IC50 [8] | IC50 [9]

C=CC[C@@H]1/C=C(\C)C[C@H](C)C[C@H](OC)[C@H]2O[C@@](O)(C(=O)C(=O)N3CCCC[C@H]3C(=O)O[C@H](/C(C)=C/[C@@H]3CC[C@@H](O)[C@H](OC)C3)[C@H](C)[C@@H](O)CC1=O)[C@H](C)C[C@@H]2OC [TACROLIMUS ANHYDROUS]
Not Active: IC50 [1] | IC50 [2] | Ki [2] | IC50 [3] | Ki [3] | IC50 [4] | IC50 (Carbonic anhydrase 2) | IC50 [5] | IC50 [6] | IC50 [7] | IC50 [8] | IC50 [9]

CC(=O)[C@H]1CC[C@H]2[C@@H]3CCC4=CC(=O)CC[C@]4(C)[C@H]3CC[C@]12C [PROGESTERONE]
Not Active: IC50 [1] | IC50 [2] | Ki [2] | IC50 [3] | Ki [3] | IC50 [4] | IC50 (Carbonic anhydrase 2) | IC50 [5] | IC50 [6] | IC50 [7] | IC50 [8] | IC50 [9]

CN[C@H](CC(C)C)C(=O)N[C@H]1C(=O)N[C@@H](CC(N)=O)C(=O)N[C@H]2C(=O)N[C@H]3C(=O)N[C@H](C(=O)N[C@H](C(=O)O)c4cc(O)cc(O)c4-c4cc3ccc4O)[C@H](O)c3ccc(c(Cl)c3)Oc3cc2cc(c3O[C@@H]2O[C@H](CO)[C@@H](O)[C@H](O)[C@H]2O[C@H]2C[C@](C)(N)[C@H](O)[C@H](C)O2)Oc2ccc(cc2Cl)[C@H]1O [VANCOMYCIN]
Not Active: IC50 [1] | IC50 [2] | Ki [2] | IC50 [3] | Ki [3] | IC50 [4] | IC50 (Carbonic anhydrase 2) | IC50 [5] | IC50 [6] | IC50 [7] | IC50 [8] | IC50 [9]

CN(C)[C@@H]1C(O)=C(C(N)=O)C(=O)[C@@]2(O)C(O)=C3C(=O)c4c(O)cccc4[C@@](C)(O)[C@H]3C[C@@H]12 [TETRACYCLINE]
Not Active: IC50 [1] | IC50 [2] | Ki [2] | IC50 [3] | Ki [3] | IC50 [4] | IC50 (Carbonic anhydrase 2) | IC50 [5] | IC50 [6] | IC50 [7] | IC50 [8] | IC50 [9]
